From patent US20250163064A1, “QUINAZOLINE COMPOUNDS AND USES THEREOF AS INHIBITORS OF MUTANT KRAS PROTEINS” (AMGEN INC., priority 2022, published 2025)
Read-outs that look alike come from different tables or passages of the source.

Experiments:
[1] = molecular target: His-tagged KRAS G12D protein (Homo sapiens (Human), UniProt P01116, G12D); assay: KRAS G12D TR-FRET Assay; type: binding; details: biotinylated KRPep-2d, 10 μM GDP
How it was run: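 His-KRAS G12D (20 nM working solution) preincubated with compound 30 min at rt in HEPES pH 7.4 buffer with 10 μM GDP, then biotinylated KRPep-2d added for 1 h. Eu-anti-His/streptavidin-d2 TR-FRET 665/615 ratio; IC50 from 4-parameter logistic fit.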

[2] = molecular target: GDP-bound KRAS protein (aa 1-169), G12D and C118A; SOS-mediated nucleotide exchange (Homo sapiens (Human), UniProt P01116, C118A/G12D); assay: KRAS G12D Coupled Nucleotide Exchange Assay; type: biochemical; details: 2 h compound pre-incubation, GTP, cRAF AlphaScreen
How it was run: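 GDP-loaded KRAS (aa 1-169, G12D/C118A, N-His) preincubated 2 h with titrated compound in pH 7.4 HEPES/MgCl2/Triton buffer. SOS (aa 564-1049) plus GTP then added for 30 min. AlphaScreen readout; IC50 from 4-parameter logistic fit.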

[3] = tested on: Phosphorylation of ERK1/2 in AsPC-1 cells; assay: Phospho-ERK1/2 MSD Assay; type: cell-based
How it was run: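 AsPC-1 cells in 10% FBS RPMI 1640 were treated with a compound dose titration for 2 h at 37° C, then lysed in RIPA buffer with protease and phosphatase inhibitors. Phospho-ERK1/2 was measured by MSD whole-cell lysate immunoassay, and IC50 was derived by 4-parameter logistic fit.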

[4] = Homo sapiens, ASPC1, 2 h, read-out: 2 h p-ERK (AsPC-1 cells), IC50 (μM), AsPC-1 cells, 2 h compound treatment
[5] = read-out: 2 h p-ERK (AsPC-1 cells), IC50, AsPC-1 cells, 2 h compound treatment

Sequence of His-tagged KRAS G12D protein (P01116-2 other isoform, or with tags, fused parts or gaps G12D): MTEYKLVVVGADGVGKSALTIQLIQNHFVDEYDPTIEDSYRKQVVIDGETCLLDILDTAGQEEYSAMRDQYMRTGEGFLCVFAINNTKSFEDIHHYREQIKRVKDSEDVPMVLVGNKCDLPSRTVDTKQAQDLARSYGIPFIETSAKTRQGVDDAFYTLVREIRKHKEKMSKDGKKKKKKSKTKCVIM
Sequence of GDP-bound KRAS protein (aa 1-169), G12D and C118A; SOS-mediated nucleotide exchange (P01116 other isoform, or with tags, fused parts or gaps G12D/C118A): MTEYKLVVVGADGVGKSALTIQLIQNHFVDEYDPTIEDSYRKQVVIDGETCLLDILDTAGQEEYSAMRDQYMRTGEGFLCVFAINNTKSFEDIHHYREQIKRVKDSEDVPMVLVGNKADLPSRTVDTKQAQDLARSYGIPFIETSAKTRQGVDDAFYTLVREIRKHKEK

SMILES	IC50 [1]	IC50 [2]	IC50 [3, 4]	IC50 [3, 5]
C[C@@]1(CO)CCCN1c1nc(OC[C@@]23CCCN2C[C@H](F)C3)nc2c(F)c(-c3ccc(F)c4sc(N)c(C#N)c34)c(Cl)cc12 [Example 47, 2-Amino-4-(6-chloro-8-fluoro-2-(((2R,7aS)-2-fluorotetrahydro-1H-pyrrolizin-7a(5H)-yl)methoxy)-4-((S)-2-(hydroxymethyl)-2-methylpyrrolidin-1-yl)quinazolin-7-yl)-7-fluorobenzo[6] thiophene-3-carbonitrile]	17 nM	7 nM	1.11 µM	–
COC[C@@H]1CCCN1c1nc(OC[C@@]23CCCN2C[C@H](F)C3)nc2c(F)c(-c3ccc(F)c4sc(N)c(C#N)c34)c(Cl)cc12 [Example 48, 2-Amino-4-(6-chloro-8-fluoro-2-(((2R,7a.S)-2-fluorotetrahydro-1H-pyrrolizin-7a(5H)-yl)methoxy)-4-((S)-2-(methoxymethyl)pyrrolidin-1-yl)quinazolin-7-yl)-7-fluorobenzo[b] thiophene-3-carbonitrile]	45 nM	21 nM	3.06 µM	–
N#Cc1c(N)sc2c(F)ccc(-c3c(Cl)cc4c(N5CCC[C@H]5CO)nc(OC[C@@]56CCCN5C[C@H](F)C6)nc4c3F)c12 [Example 49, 2-Amino-4-(6-chloro-8-fluoro-2-(((2R,7aS)-2-fluorotetrahydro-1H-pyrrolizin-7a(5H)-yl)methoxy)-4-((S)-2-(hydroxymethyl)pyrrolidin-1-yl)quinazolin-7-yl)-7-fluorobenzo[b] thiophene-3-carbonitrile]	4 nM	4 nM	0.252 µM	–
N#CC[C@@H]1CCCN1c1nc(OC[C@@]23CCCN2C[C@H](F)C3)nc2c(F)c(-c3ccc(F)c4sc(N)c(C#N)c34)c(Cl)cc12 [Example 50, 2-Amino-4-(6-chloro-4-((S)-2-(cyanomethyl)pyrrolidin-1-yl)-8-fluoro-2-(((2R,7aS)-2-fluorotetrahydro-1H-pyrrolizin-7a(5H)-yl)methoxy)quinazolin-7-yl)-7-fluorobenzo[b] thiophene-3-carbonitrile]	7 nM	7 nM	0.307 µM	–
N#Cc1c(N)sc2c(F)ccc(-c3c(Cl)cc4c(N5CCCCOCC5)nc(OC[C@@]56CCCN5C[C@H](F)C6)nc4c3F)c12 [Example 51, 2-Amino-4-(6-chloro-8-fluoro-2-(((2R,7aS)-2-fluorotetrahydro-1H-pyrrolizin-7a(5H)-yl)methoxy)-4-(1,4-oxazocan-4-yl)quinazolin-7-yl)-7-fluorobenzo[b] thiophene-3-carbonitrile]	2 nM	2 nM	0.089 µM	–
C[C@]1(CO)CCCN1c1nc(OC[C@@]23CCCN2C[C@H](F)C3)nc2c(F)c(-c3ccc(F)c4sc(N)c(C#N)c34)c(Cl)cc12 [Example 52, 2-Amino-4-(6-chloro-8-fluoro-2-(((2R,7aS)-2-fluorotetrahydro-1H-pyrrolizin-7a(5H)-yl)methoxy)-4-((R)-2-(hydroxymethyl)-2-methylpyrrolidin-1-yl)quinazolin-7-yl)-7-fluorobenzo[b] thiophene-3-carbonitrile]	8 nM	7 nM	0.505 µM	–
N#Cc1c(N)sc2c(F)ccc(-c3c(Cl)cc4c(N5CCC[C@H]5C#N)nc(OC[C@@]56CCCN5C[C@H](F)C6)nc4c3F)c12 [Example 53, (2S)-1-(7-(2-Amino-3-cyano-7-fluorobenzo[b]thiophen-4-yl)-6-chloro-8-fluoro-2-(((2R,7aS)-2-fluorotetrahydro-1H-pyrrolizin-7a(5H)-yl)methoxy)quinazolin-4-yl)pyrrolidine-2-carbonitrile]	1 nM	1 nM	0.119 µM	–
N#Cc1c(N)sc2c(F)ccc(-c3c(Cl)cc4c(N5CCC[C@@H](C#N)C5)nc(OC[C@@]56CCCN5C[C@H](F)C6)nc4c3F)c12 [Example 54, (3R)-1-(7-(2-Amino-3-cyano-7-fluorobenzo[b]thiophen-4-yl)-6-chloro-8-fluoro-2-(((2R,7aS)-2-fluorotetrahydro-1H-pyrrolizin-7a(5H)-yl)methoxy)quinazolin-4-yl)piperidine-3-carbonitrile]	14 nM	13 nM	1.09 µM	–
N#Cc1c(N)sc2c(F)ccc(-c3c(Cl)cc4c(N5CCCOCC5)nc(OC[C@@]56CCCN5C[C@H](F)C6)nc4c3F)c12 [Example 55, 2-Amino-4-(6-chloro-8-fluoro-2-(((2R,7aS)-2-fluorotetrahydro-1H-pyrrolizin-7a(5H)-yl)methoxy)-4-(1,4-oxazepan-4-yl)quinazolin-7-yl)-7-fluorobenzo[b]thiophene-3-carbonitrile]	5 nM	8 nM	0.102 µM	–
N#Cc1c(N)sc2c(F)ccc(-c3c(Cl)cc4c(N5CCCCC(C#N)C5)nc(OC[C@@]56CCCN5C[C@H](F)C6)nc4c3F)c12 (stereo partly drawn) [Example 57, 1-(7-(2-Amino-3-cyano-7-fluorobenzo[b]thiophen-4-yl)-6-chloro-8-fluoro-2-(((2R,7aS)-2-fluorotetrahydro-1H-pyrrolizin-7a(5H)-yl)methoxy)quinazolin-4-yl)azepane-3-carbonitrile]	3 nM	3 nM	0.061 µM	–
C=Cc1cc2c(N3CCOCC(C)(O)C3)nc(OC[C@@]34CCCN3C[C@H](F)C4)nc2c(F)c1-c1ccc(F)c2sc(N)c(C#N)c12 (stereo partly drawn) [Example 61, 2-Amino-7-fluoro-4-(8-fluoro-2-(((2R,7aS)-2-fluorotetrahydro-1H-pyrrolizin-7a(5H)-yl)methoxy)-4-(6-hydroxy-6-methyl-1,4-oxazepan-4-yl)-6-vinylquinazolin-7-yl)benzo[b]thiophene-3-carbonitrile]	5 nM	3 nM	0.05 µM	–
CCc1cc2c(N3CCOCC(C)(O)C3)nc(OC[C@@]34CCCN3C[C@H](F)C4)nc2c(F)c1-c1ccc(F)c2sc(N)c(C#N)c12 (stereo partly drawn) [Example 62, 2-Amino-4-(6-ethyl-8-fluoro-2-(((2R,7aS)-2-fluorotetrahydro-1H-pyrrolizin-7a(H)-yl)methoxy)-4-(6-hydroxy-6-methyl-1,4-oxazepan-4-yl)quinazolin-7-yl)-7-fluorobenzo[b]thiophene-3-carbonitrile]	3 nM	1 nM	–	0.025 µM
CC1(O)COCCN(c2nc(OC[C@@]34CCCN3C[C@H](F)C4)nc3c(F)c(-c4ccc(F)c5sc(N)c(C#N)c45)c(O)cc23)C1 (stereo partly drawn) [Example 63, 2-Amino-7-fluoro-4-(8-fluoro-2-(((2R,7aS)-2-fluorotetrahydro-1H-pyrrolizin-7a (H)-yl)methoxy)-6-hydroxy-4-(6-hydroxy-6-methyl-1,4-oxazepan-4-yl)quinazolin-7-yl)benzo[b]thiophene-3-carbonitrile]	4 nM	3 nM	–	> 10 µM
N#Cc1c(N)sc2c(F)ccc(-c3c(Cl)cc4c(N5CCCC6(CC(O)C6)C5)nc(OC[C@@]56CCCN5C[C@H](F)C6)nc4c3F)c12 (stereo partly drawn) [Example 64, 2-Amino-4-(6-chloro-8-fluoro-2-(((2R,7aS)-2-fluorotetrahydro-1H-pyrrolizin-7a(5H)-yl)methoxy)-4-(2-hydroxy-6-azaspiro[3.5]nonan-6-yl)quinazolin-7-yl)-7-fluorobenzo[b]thiophene-3-carbonitrile]	25 nM	28 nM	1.52 µM	–
C[C@@H]1[C@H](O)CCN1c1nc(OC[C@@]23CCCN2C[C@H](F)C3)nc2c(F)c(-c3ccc(F)c4sc(N)c(C#N)c34)c(Cl)cc12 [Example 65, 2-Amino-4-(6-chloro-8-fluoro-2-(((2R,7aS)-2-fluorotetrahydro-1H-pyrrolizin-7a(5H)-yl)methoxy)-4-((2R,3R)-3-hydroxy-2-methylpyrrolidin-1-yl)quinazolin-7-yl)-7-fluorobenzo[b] thiophene-3-carbonitrile]	12 nM	6 nM	0.33 µM	–
C[C@@H]1CCCN1c1nc(OC[C@@]23CCCN2C[C@H](F)C3)nc2c(F)c(-c3ccc(F)c4sc(N)c(C#N)c34)c(Cl)cc12 [Example 66, 2-Amino-4-(6-chloro-8-fluoro-2-(((2R,7aS)-2-fluorotetrahydro-1H-pyrrolizin-7a(5H)-yl)methoxy)-4-((R)-2-methylpyrrolidin-1-yl)quinazolin-7-yl)-7-fluorobenzo[b] thiophene-3-carbonitrile]	24 nM	16 nM	0.586 µM	–
N#Cc1c(N)sc2c(F)ccc(-c3c(Cl)cc4c(C5=CCCOC5)nc(OC[C@@]56CCCN5C[C@H](F)C6)nc4c3F)c12 [Example 70, 2-Amino-4-(6-chloro-4-(5,6-dihydro-2H-pyran-3-yl)-8-fluoro-2-(((2R,7aS)-2-fluorotetrahydro-1H-pyrrolizin-7a(5H)-yl)methoxy)quinazolin-7-yl)-7-fluorobenzo[b]thiophene-3-carbonitrile bis(2,2,2-trifluoroacetate)]	34 nM	19 nM	0.845 µM	–
